Source: article PMC10434272, “Overexpression of Eimeria tenella Rhoptry Kinase 2 Induces Early Production of Schizonts” (Microbiology Spectrum, 2023)
pIC50: −log10 of the molar value.

Legend:
[1] = molecular target: T1, EtROP2 (rhoptry kinase 2) (Eimeria tenella, UniProt U6KH66); design: gene ETH_00027700
[2] = molecular target: T1, EtROP2 (rhoptry kinase 2); assay: ADP-Glo kinase assay with p120-TLTR peptide substrate, […] ATP; assay type: biochemical; design: gene ETH_00027700; EtROP2-GST, wild type, full-length, from Met1 to Glu671, produced in Sf9 cells

T1 sequence (U6KH66 entry or part of it): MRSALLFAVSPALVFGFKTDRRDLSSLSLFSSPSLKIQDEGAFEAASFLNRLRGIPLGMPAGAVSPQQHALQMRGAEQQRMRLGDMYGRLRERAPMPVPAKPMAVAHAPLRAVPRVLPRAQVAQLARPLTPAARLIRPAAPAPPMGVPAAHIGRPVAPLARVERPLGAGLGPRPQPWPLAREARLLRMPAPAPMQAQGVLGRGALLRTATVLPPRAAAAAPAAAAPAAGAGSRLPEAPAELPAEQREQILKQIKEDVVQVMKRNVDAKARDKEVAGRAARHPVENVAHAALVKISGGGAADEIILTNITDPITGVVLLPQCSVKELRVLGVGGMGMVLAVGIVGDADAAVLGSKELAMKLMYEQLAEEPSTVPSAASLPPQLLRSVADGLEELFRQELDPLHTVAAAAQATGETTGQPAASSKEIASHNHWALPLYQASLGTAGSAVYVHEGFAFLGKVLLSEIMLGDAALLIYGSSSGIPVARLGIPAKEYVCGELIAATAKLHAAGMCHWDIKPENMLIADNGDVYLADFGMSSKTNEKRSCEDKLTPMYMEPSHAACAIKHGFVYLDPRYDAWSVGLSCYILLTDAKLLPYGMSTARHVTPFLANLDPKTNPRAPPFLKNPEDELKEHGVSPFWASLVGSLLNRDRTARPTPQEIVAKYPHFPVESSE

Structure (SMILES)	Km [1] [µM]	pIC50 [2]
Nc1ncnc2c1ncn2[C@@H]1O[C@H](COP(=O)(O)OP(=O)(O)OP(=O)(O)O)[C@@H](O)[C@H]1O [ATP]	~7.52	
CN[C@@H]1C[C@H]2O[C@@](C)([C@@H]1OC)n1c3ccccc3c3c4c(c5c6ccccc6n2c5c31)C(=O)NC4 [STS, staurosporine]		6.54
